The target of one data set is T1, mushroom tyrosinase (Agaricus bisporus, UniProt C7FF04).
T1 construct: purchased Sigma-Aldrich
Description: Mushroom tyrosinase inhibition assay. In kind it is biochemical. The note with it: L-tyrosine as substrate. The method, then: Mushroom tyrosinase inhibitory activity was determined as described previously, with minor modifications. L-Tyrosine was used as a substrate to determine enzyme activities. […] These dose-dependent inhibition experiments were carried out three times using three to five different concentrations of test compounds to determine IC50 values. Log–linear curves and their equations were derived from the observed percentages of inhibition.

Data set [1] in a line: DPPH radical scavenging activity assay. The note with it: compound 1.0 mM, 30 min in the dark, 517 nm. The method, then:
The DPPH (2,2-diphenyl-1-picrylhydrazyl) scavenging activities of synthesized compounds 1a–1p were investigated as previously described, with minor modifications. A dimethyl sulfoxide solution (20 µL) containing 10 mM of each compound was mixed with DPPH methanol solution (0.2 mM, 180 µL) in the wells of a 96-well plate, and placed in the dark for 30 min at room temperature. At 517 nm, optical densities were measured using a microplate reader (VersaMax^TM, Molecular Devices, Sunnyvale, CA, USA). The DPPH radical scavenging ability of the 2-arylbenzothiazole derivatives was compared with that of L-ascorbic acid, the positive control. All experiments were performed independently in triplicate.

A short description of data set [2]: ABTS radical scavenging activity assay. The note with it: 100 µM, 2 min in the dark; for ABTS free radical scavenged (%): 734 nm. As to the method:
At 734 nm, optical densities of the solutions were measured using a microplate reader (VersaMax^TM, Molecular Devices, Sunnyvale, CA, USA). The ABTS radical scavenging capacities of the 16 2-arylbenzothiazole derivatives were compared with trolox. All experiments were performed independently in triplicate.

Data set [3] concerns intracellular ROS in B16F10 cells. Description: Intracellular ROS scavenging (DCFH-DA assay, SIN-1 induced). The data set is classed as cell-based, murine. The note with it: 20 µM, SIN-1 10 µM, trolox 20 µM positive control. As to the method: Intracellular ROS scavenging evaluation was performed as reported by Ali et al. and Lebel and Bondy. ROS generation was assessed using the ROS-sensitive fluorescence indicator DCFH-DA. Briefly, B16F10 cells were seeded in 96-well black plates (1 × 10^4 cell/well), incubated for 24 h, treated with compounds 1a–1p (20 µM in DMSO) for 2 h, stimulated with 10 µL of SIN-1 (100 µM in 50 mM sodium phosphate buffer, pH 7.4) for 1 h to induce ROS production, and then incubated with DCFH-DA (20 µM) for 30 min at 37 °C. Fluorescence was measured for 30 min at 5 min intervals at an excitation wavelength of 485 nm and emission wavelength of 535 nm, using a Berthold microplate reader (Berthold Technologies GmbH &Co., Wien, Austria).

Bounds are passed on as bounds.

From paper PMC9311798, “A Novel Class of Potent Anti-Tyrosinase Compounds with Antioxidant Activity, 2-(Substituted phenyl)-5-(trifluoromethyl)benzo[d]thiazoles: In Vitro and In Silico Insights” (Antioxidants, 2022) come the findings set out here.

T1 sequence (C7FF04 1-392 limits assumed): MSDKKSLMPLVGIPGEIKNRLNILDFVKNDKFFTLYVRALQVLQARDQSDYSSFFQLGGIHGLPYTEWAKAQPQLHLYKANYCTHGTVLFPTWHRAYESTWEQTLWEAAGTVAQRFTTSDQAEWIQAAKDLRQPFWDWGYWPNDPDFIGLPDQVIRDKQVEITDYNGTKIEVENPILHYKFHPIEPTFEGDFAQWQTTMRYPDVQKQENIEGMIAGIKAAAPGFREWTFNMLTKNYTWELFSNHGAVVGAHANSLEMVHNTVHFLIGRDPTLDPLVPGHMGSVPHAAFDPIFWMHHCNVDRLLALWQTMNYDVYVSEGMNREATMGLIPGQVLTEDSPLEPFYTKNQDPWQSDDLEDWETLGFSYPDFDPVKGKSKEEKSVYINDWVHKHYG

Turning to `Oc1ccc(-c2nc3cc(C(F)(F)F)ccc3s2)cc1O` [Compound 1c, 4-(5-(Trifluoromethyl)benzo[d]thiazol-2-yl)benzene-1,2-diol], the melting point is 267.3 to 269.4 °C. The IC50 against mushroom tyrosinase was more than 300 µM. Besides, in data set [1], the “DPPH radical scavenging activity” value is “greatest DPPH radical scavenging activity (comparable to L-ascorbic acid)”. In data set [2], the “ABTS radical scavenging activity (in words)” value is reported as “potently scavenged the ABTS radical” and the “ABTS free radical scavenged (%)” value was 92.4%. The “intracellular ROS scavenging” value in data set [3] was “scavenged intracellular ROS far more potently than trolox”.

As for `COc1cc(-c2nc3cc(C(F)(F)F)ccc3s2)ccc1O` [Compound 1d, 2-Methoxy-4-(5-(trifluoromethyl)benzo[d]thiazol-2-yl)phenol], the melting point is 155.7 to 159.9 °C. At mushroom tyrosinase, this compound yielded an IC50 of 291 ± 63.8 µM. Besides, the “DPPH radical scavenging activity” value in data set [1] is listed as “moderate DPPH radical scavenging efficacy”.

`CCOc1cc(-c2nc3cc(C(F)(F)F)ccc3s2)ccc1O` [Compound 1e, 2-Ethoxy-4-(5-(trifluoromethyl)benzo[d]thiazol-2-yl)phenol] had a melting point of 117 to 117.8 °C. For the same compound, on mushroom tyrosinase, the IC50 is more than 300 µM.

The compound `COc1ccc(-c2nc3cc(C(F)(F)F)ccc3s2)cc1O` [Compound 1f, 2-Methoxy-5-(5-(trifluoromethyl)benzo[d]thiazol-2-yl)phenol] showed a melting point of 142.1 to 144.5 °C. Also, the IC50 against mushroom tyrosinase is more than 300 µM. Also, the “DPPH radical scavenging activity” value in data set [1] was “moderate DPPH radical scavenging efficacy”.

With `Oc1ccccc1-c1nc2cc(C(F)(F)F)ccc2s1` [Compound 1g, 2-(5-(Trifluoromethyl)benzo[d]thiazol-2-yl)phenol], the melting point fell in the range of 175 to 176.5 °C. On mushroom tyrosinase, the IC50 was more than 300 µM. For the same compound, in data set [3], the “intracellular ROS scavenging” value is “scavenged intracellular ROS to a similar extent to trolox”.

With `COc1ccc(-c2nc3cc(C(F)(F)F)ccc3s2)cc1` [Compound 1h, 2-(4-Methoxyphenyl)-5-(trifluoromethyl)benzo[d]thiazole], the melting point lay within 128.8 to 130.1 °C. This compound displayed an IC50 at mushroom tyrosinase of more than 300 µM.

Consider `COc1ccc(-c2nc3cc(C(F)(F)F)ccc3s2)c(OC)c1` [Compound 1i, 2-(2,4-Dimethoxyphenyl)-5-(trifluoromethyl)benzo[d]thiazole], for which the melting point is 140.4 to 141.6 °C. Further, at mushroom tyrosinase, the IC50 was more than 300 µM.

`COc1ccc(-c2nc3cc(C(F)(F)F)ccc3s2)cc1OC` [Compound 1j, 2-(3,4-Dimethoxyphenyl)-5-(trifluoromethyl)benzo[d]thiazole] returned a melting point of 120.4 to 121.6 °C. On mushroom tyrosinase, the midpoint of inhibition, the IC50, lay at 264 ± 56.6 µM.

The compound `COc1cc(-c2nc3cc(C(F)(F)F)ccc3s2)cc(OC)c1OC` [Compound 1k, 5-(Trifluoromethyl)-2-(3,4,5-trimethoxyphenyl)benzo[d]thiazole] gave a melting point of 132.5 to 134 °C. The compound further gave a half-inhibitory concentration (IC50) on mushroom tyrosinase of more than 300 µM.

With `COc1cc(-c2nc3cc(C(F)(F)F)ccc3s2)cc(OC)c1O` [Compound 1l, 2,6-Dimethoxy-4-(5-(trifluoromethyl)benzo[d]thiazol-2-yl)phenol], the melting point fell in the range of 220.6 to 222.6 °C. Besides, at mushroom tyrosinase, the IC50 is more than 300 µM. The “DPPH radical scavenging activity” value in data set [1] was “moderate DPPH radical scavenging efficacy”.

At mushroom tyrosinase, `Cc1cc(-c2nc3cc(C(F)(F)F)ccc3s2)cc(C)c1O` [Compound 1m, 2,6-Dimethyl-4-(5-(trifluoromethyl)benzo[d]thiazol-2-yl)phenol] showed an IC50 of 129 ± 19.8 µM. The “DPPH radical scavenging activity” value in data set [1] is “moderate DPPH radical scavenging efficacy”.

In the case of `Oc1cc(O)cc(-c2nc3cc(C(F)(F)F)ccc3s2)c1` [Compound 1n, 5-(5-(Trifluoromethyl)benzo[d]thiazol-2-yl)benzene-1,3-diol], the melting point lay within 256.7 to 260.6 °C. The compound further had a concentration for half-maximal inhibition (IC50) on mushroom tyrosinase of 217 ± 32.7 µM. Further, the “DPPH radical scavenging activity” value in data set [1] is “moderate DPPH radical scavenging efficacy”. In addition, the “ABTS radical scavenging activity (in words)” value in data set [2] is reported as “potently scavenged the ABTS radical”. Besides, the “intracellular ROS scavenging” value in data set [3] is “scavenged intracellular ROS to a similar extent to trolox”.

Regarding `Oc1c(Br)cc(-c2nc3cc(C(F)(F)F)ccc3s2)cc1Br` [Compound 1o, 2,6-Dibromo-4-(5-(trifluoromethyl)benzo[d]thiazol-2-yl)phenol], at mushroom tyrosinase, the IC50 is more than 300 µM.

For `Oc1ccc(-c2nc3cc(C(F)(F)F)ccc3s2)cc1Br` [Compound 1p, 2-Bromo-4-(5-(trifluoromethyl)benzo[d]thiazol-2-yl)phenol], the IC50 at mushroom tyrosinase amounted to 102 ± 12.4 µM. Also, the “intracellular ROS scavenging” value in data set [3] is reported as “scavenged intracellular ROS to a similar extent to trolox”.

Take `Cc1c(C)c2c(c(C)c1O)CCC(C)(C(=O)O)O2` (stereo not drawn) [trolox, 6-hydroxy-2,5,7,8-tetramethylchroman-2-carboxylic acid, reference compound]: in data set [2], the “ABTS free radical scavenged (%)” value amounted to 98.9%.

One may read the IC50 as the concentration at which inhibition is half-maximal. Low values mean inhibition by little substance, high ones a need for much substance. The melting point is the temperature of the solid-liquid transition.
